Assay results from the supplement of paper PMC10307832.

Tests used:
Test in all cases: relative viability (nuclei count vs DMSO), 5 days (fraction); higher = more cells survive
Dactolisib + AZD7762 = compound: Cn1c(=O)n(-c2ccc(C(C)(C)C#N)cc2)c2c3cc(-c4cnc5ccccc5c4)ccc3ncc21 [Dactolisib] + NC(=O)Nc1cc(-c2cccc(F)c2)sc1C(=O)N[C@H]1CCCNC1 [AZD7762] (partner 0.2 µM)
In short: (§1)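 After 5 days of treatment, lung cancer cells in 1536-well plates were fixed and stained in a single step (final 0.05% Triton X-100, 1% formaldehyde, 1 ug/ml Hoechst) and their nuclei counted on 4× images. Treatment had been applied by pin tool the day after seeding as one drug alone or as a fixed anchor-drug dose with five library-drug doses (not always all listed) in √10 steps. Relative viability is the nuclei count of treated wells divided by that of vehicle wells, and values are medians of duplicate plates.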

AZ505 + Pictilisib = compound: C1CCC(CC1)N(CCNCCC2=C3C(=C(C=C2)O)NC(=O)CO3)C(=O)CCNCCC4=CC(=C(C=C4)Cl)Cl [AZ505] + CS(=O)(=O)N1CCN(Cc2cc3nc(-c4cccc5[nH]ncc45)nc(N4CCOCC4)c3s2)CC1 [Pictilisib] (partner 1 µM)
In short: as §1

AZ505 + Decitabine = compound: C1CCC(CC1)N(CCNCCC2=C3C(=C(C=C2)O)NC(=O)CO3)C(=O)CCNCCC4=CC(=C(C=C4)Cl)Cl [AZ505] + Nc1ncn([C@H]2C[C@H](O)[C@@H](CO)O2)c(=O)n1 [Decitabine] (partner 2 µM)
In short: as §1

Dactolisib + Trametinib = compound: Cn1c(=O)n(-c2ccc(C(C)(C)C#N)cc2)c2c3cc(-c4cnc5ccccc5c4)ccc3ncc21 [Dactolisib] + CC(=O)Nc1cccc(-n2c(=O)n(C3CC3)c(=O)c3c(Nc4ccc(I)cc4F)n(C)c(=O)c(C)c32)c1 [Trametinib] (partner 0.02 µM)
In short: as §1

Cell Line	relative viability (Dactolisib + AZD7762; first compound 0.002 µM)	relative viability (Dactolisib + AZD7762; first compound 0.006325 µM)	relative viability (Dactolisib + AZD7762; first compound 0.02 µM)	relative viability (Dactolisib + AZD7762; first compound 0.06325 µM)	relative viability (Dactolisib + AZD7762; first compound 0.2 µM)	relative viability (AZ505 + Pictilisib; first compound 0.08 µM)	relative viability (AZ505 + Pictilisib; first compound 0.253 µM)	relative viability (AZ505 + Pictilisib; first compound 0.8 µM)	relative viability (AZ505 + Pictilisib; first compound 2.53 µM)	relative viability (AZ505 + Pictilisib; first compound 8 µM)	relative viability (AZ505 + Decitabine; first compound 0.08 µM)	relative viability (AZ505 + Decitabine; first compound 0.253 µM)	relative viability (AZ505 + Decitabine; first compound 0.8 µM)	relative viability (AZ505 + Decitabine; first compound 2.53 µM)	relative viability (AZ505 + Decitabine; first compound 8 µM)	relative viability (Dactolisib + Trametinib; first compound 0.002 µM)	relative viability (Dactolisib + Trametinib; first compound 0.006325 µM)	relative viability (Dactolisib + Trametinib; first compound 0.02 µM)	relative viability (Dactolisib + Trametinib; first compound 0.06325 µM)	relative viability (Dactolisib + Trametinib; first compound 0.2 µM)
LCLC-103H	0.797	0.781	0.703	0.582	0.467	0.627	0.532	0.555	0.657	0.6	0.73	0.674	0.707	0.751	0.702	0.664	0.604	0.581	0.515	0.42
LK-2	0.273	0.447	0.305	0.12	0.0726	0.562	0.706	0.59	0.597	0.604	0.22	0.32	0.331	0.33	0.329	0.609	0.761	0.554	0.225	0.21
LOU-NH91	0.753	0.734	0.69	0.575	0.533	0.493	0.512	0.537	0.452	0.531	0.783	0.818	0.781	0.801	0.805	0.778	0.714	0.679	0.557	0.612
LU99A	0.305	0.247	0.263	0.166	0.127	0.318	0.327	0.302	0.354	0.315	0.841	0.921	0.802		0.87	0.527	0.493	0.4	0.286	0.192
LXF-289	1.14	1.13	1.19	1.14	0.862	0.706		0.773	0.731	0.818	0.355	0.39	0.396	0.347	0.386	0.709	0.629	0.633	0.559	0.379
NCI-H23	0.241	0.232	0.309	0.19	0.101	0.402		0.582	0.416	0.478	0.284	0.326	0.327	0.306	0.311	0.468	0.361	0.276	0.229	0.179
NCI-H322M	0.524	0.547	0.424	0.425	0.408	0.517	0.422	0.562	0.508	0.504	0.679		0.67	0.677	0.76	0.583	0.561	0.447	0.436	0.44
NCI-H358	0.474	0.545	0.559	0.445	0.188	0.3	0.332	0.355	0.313	0.371	0.2	0.209	0.194	0.218	0.21	0.123	0.149	0.124	0.104	0.106
NCI-H441	1.04	1.28	1.18	0.764	0.449	0.427	0.548	0.458	0.546	0.521	0.287	0.245	0.232	0.25	0.264	0.523	0.412	0.43	0.217	0.213
NCI-H460	0.588	0.662	0.614	0.379	0.115	0.264	0.299	0.337	0.29	0.364	0.481	0.525	0.461	0.584	0.521	0.2	0.0901	0.13	0.0463	0.0358
NCI-H596	1.21	1.03	0.946	0.774	0.396	0.362	0.382	0.355	0.394	0.445	0.976		0.974	1.15	0.979	0.776	0.7	0.496	0.491	0.298
NCI-H647	0.36	0.337	0.276	0.159	0.111	0.448		0.359	0.422	0.485	0.356	0.451	0.372	0.373	0.379	0.381	0.42	0.291	0.118	0.103
NCI-H650	1.04	1.07	0.9	0.79	0.469	0.69	1.01	0.876	0.86	0.885	0.311	0.343	0.301	0.316	0.288	1.04	0.906	0.942	0.527	0.424
NCI-H727		0.519	0.468	0.47	0.45	0.327	0.313	0.468	0.274	0.47	0.829	0.693	0.812	0.849	0.987		0.42	0.358	0.401	0.373
NCI-H838	0.845	0.908	0.843	0.709	0.633	0.342	0.404	0.493	0.344	0.411	0.444	0.475	0.461	0.469	0.506	0.456	0.35	0.34	0.179	0.145
NCI-H1355	0.834	0.73	0.699	0.419	0.308	0.409	0.338	0.428	0.321	0.445	0.345	0.366	0.37	0.379	0.351	0.45	0.37	0.384	0.215	0.203

Cell Line	relative viability (Dactolisib + AZD7762; first compound 0.002 µM)	relative viability (Dactolisib + AZD7762; first compound 0.006325 µM)	relative viability (Dactolisib + AZD7762; first compound 0.02 µM)	relative viability (Dactolisib + AZD7762; first compound 0.06325 µM)	relative viability (Dactolisib + AZD7762; first compound 0.2 µM)	relative viability (AZ505 + Pictilisib; first compound 0.08 µM)	relative viability (AZ505 + Pictilisib; first compound 0.253 µM)	relative viability (AZ505 + Pictilisib; first compound 0.8 µM)	relative viability (AZ505 + Pictilisib; first compound 2.53 µM)	relative viability (AZ505 + Pictilisib; first compound 8 µM)	relative viability (AZ505 + Decitabine; first compound 0.08 µM)	relative viability (AZ505 + Decitabine; first compound 0.253 µM)	relative viability (AZ505 + Decitabine; first compound 0.8 µM)	relative viability (AZ505 + Decitabine; first compound 2.53 µM)	relative viability (AZ505 + Decitabine; first compound 8 µM)	relative viability (Dactolisib + Trametinib; first compound 0.002 µM)	relative viability (Dactolisib + Trametinib; first compound 0.006325 µM)	relative viability (Dactolisib + Trametinib; first compound 0.02 µM)	relative viability (Dactolisib + Trametinib; first compound 0.06325 µM)	relative viability (Dactolisib + Trametinib; first compound 0.2 µM)
NCI-H1395	0.375	0.373	0.391	0.373	0.355	0.704	0.563	0.512	0.635	0.698	0.745		0.664	0.699	0.767	0.867	0.889	0.93	0.637	0.487
NCI-H1437	1.07	1.18	1.12	1.05	1.1	0.46	0.424	0.599	0.415	0.404	0.574	0.571	0.62	0.625	0.555	0.558	0.507	0.487	0.369	0.292
NCI-H1651	0.443	0.483	0.318	0.28	0.179	0.656	0.56	0.603	0.633	0.588	0.55	0.576	0.672	0.727	0.598	0.816	0.825	0.822	0.599	0.452
NCI-H1666	0.81	0.98	0.807	0.727	0.656	0.442	0.404	0.421	0.408	0.456	0.69	0.667	0.752	0.659	0.694	0.855	0.804	0.835	0.734	0.742
NCI-H1734	0.542	0.428	0.447	0.146	0.131	0.384	0.407	0.446	0.44	0.431	0.52	0.501	0.45	0.541	0.506	0.69	0.557	0.624	0.374	0.25
NCI-H1755	0.355	0.453	0.422	0.411	0.325	0.347	0.331	0.333	0.42	0.431	0.721	0.727	0.724	0.711	0.772	0.779	0.759	0.724	0.611	0.486
NCI-H1792	0.748	0.448	0.569	0.0821	0.0508	0.301	0.262	0.288	0.25	0.323	0.494	0.481	0.602	0.51	0.604	0.498	0.407	0.267	0.174	0.0814
NCI-H1793	0.44	0.361	0.38	0.246	0.11	0.284	0.417	0.426	0.31	0.386	0.588	0.506	0.454	0.544	0.549	0.418	0.359	0.244	0.231	0.196
NCI-H1915	0.654	0.67	0.696	0.664	0.597	0.907	0.891	0.835	0.703	0.913	0.278	0.303	0.29	0.27	0.279	0.32	0.296	0.304	0.229	0.178
NCI-H1944	0.374	0.47	0.401	0.24	0.195	0.343	0.372	0.346	0.344	0.334	0.436	0.465	0.414	0.475	0.418	0.429	0.408	0.364	0.23	0.22
NCI-H1975	0.659	0.695	0.63	0.488	0.388	0.264	0.303	0.267	0.277	0.283	0.345	0.355	0.407	0.322	0.403	0.36	0.292	0.323	0.191	0.161
NCI-H1993	0.735	0.507	0.53	0.335	0.387	0.679	0.798	0.807	0.768	0.776	0.595	0.602	0.575	0.617	0.594	0.514	0.455	0.504	0.389	0.421
NCI-H2085	0.984	0.9	0.877	0.731	0.281	0.444	0.39	0.502	0.435	0.531	0.571	0.551	0.496	0.565	0.569	0.712	0.455	0.241	0.266	0.231
NCI-H2087	1.24	1.35	1.67	0.707	0.597	0.679	0.703	0.797	0.738	0.828	0.224	0.254	0.275	0.289	0.277	0.229	0.217	0.214	0.127	0.114
NCI-H2126	0.946	0.925	0.949	0.803	0.623	0.448	0.462	0.535	0.452	0.544	0.589	0.6	0.547	0.563	0.59	0.557	0.548	0.433	0.38	0.306
NCI-H2170	0.806	0.88	0.753	0.382	0.244	0.319	0.289	0.254	0.336	0.33	0.469	0.466	0.422	0.482	0.453	0.925	0.881	0.845	0.478	0.35
